One assay has as its system MLKL phosphorylation (pMLKL) in HT29-L23 cells. Briefly: MLKL Phosphorylation High-Content Assay. In kind it is cell-based. Conditions: Homo sapiens, 6 h, necroptosis induced with human TNFα, SMAC mimetic and Z-VAD, read-out: LE pMLKL HC IC50. The gist of the method: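 HT29-L23 cells incubated 6 h at 37° C before detection of phospho-MLKL by immunostaining with anti-phospho-MLKL antibody (1:1000 in PBS/0.1% BSA, overnight at 4° C). Readout by high-content imaging with compartmental image analysis.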
For the compound `Nc1nc2cc(-c3cccc(OCCC(F)(F)C(O)c4ccc(F)cc4)c3F)ccn2n1` (single isomer, unassigned) [Example 71, 4-(3-(2-amino-[1,2,4]triazolo[1,5-a]pyridin-7-yl)-2-fluorophenoxy)-2,2-difluoro-1-(4-fluorophenyl)butan-1-ol], the IC50 amounted to 0.6 nM.

Consider `CC(O)(c1ccccc1)C(F)(F)CCOc1cccc(-c2ccn3nc(N)nc3c2)c1F` (single isomer, unassigned) [Example 68, 5-(3-(2-amino-[1,2,4]triazolo[1,5-a]pyridin-7-yl)-2-fluorophenoxy)-3,3-difluoro-2-phenylpentan-2-ol], for which the IC50 worked out at 0.1 nM.

For `Nc1nc2cc(-c3cccc(OCCC(F)(F)C(O)c4ccc(Cl)cc4)c3F)ccn2n1` (racemic) [Example 70, 4-(3-(2-amino-[1,2,4]triazolo[1,5-a]pyridin-7-yl)-2-fluorophenoxy)-1-(4-chlorophenyl)-2,2-difluorobutan-1-ol], the IC50 stood at 1 nM.

Take `Nc1nc2cc(-c3cccc(OCCC(F)(F)COc4cc(Cl)ccn4)c3F)ccn2n1` [Example 1, 7-(3-(4-((4-chloropyridin-2-yl)oxy)-3,3-difluorobutoxy)-2-fluorophenyl)-[1,2,4]triazolo[1,5-a]pyridin-2-amine]: the IC50 turned out to be 140 nM.

Staying with this assay, now noted: necroptosis induced with human TNFα, SMAC mimetic and Z-VAD, 6 h, read-out: LE pMLKL HC IC50.
Turning to `Cc1ccc(-c2ccn3nc(N)nc3c2)c(F)c1OCCC(F)C(O)c1ccc(F)cc1` (single isomer, unassigned) [Example 108, 4-(3-(2-amino-[1,2,4]triazolo[1,5-a]pyridin-7-yl)-2-fluoro-6-methylphenoxy)-2-fluoro-1-(4-fluorophenyl)butan-1-ol], the IC50 came to 2.4 nM.

As to `Cc1ccc(-c2ccn3nc(N)nc3c2)c(F)c1OCCC(F)(F)C(C)(O)c1ccc(F)cc1` (single isomer, unassigned) [Example 64, 5-(3-(2-amino-[1,2,4]triazolo[1,5-a]pyridin-7-yl)-2-fluoro-6-methylphenoxy)-3,3-difluoro-2-(4-fluorophenyl)pentan-2-ol], the IC50 was 0.1 nM.

`CC(O)(c1ccc(F)cc1)C(F)CCOc1c(F)ccc(-c2ccn3nc(N)nc3c2)c1F` (single isomer, unassigned) [Example 94, 5-(3-(2-amino-[1,2,4]triazolo[1,5-a]pyridin-7-yl)-2,6-difluorophenoxy)-3-fluoro-2-(4-fluorophenyl)pentan-2-ol]: the IC50 came out at 97 nM.

For the compound `CC(O)(c1ccc(F)cc1)C(F)CCOc1cc(-c2ccn3nc(N)nc3c2)cc(F)c1F` (single isomer, unassigned) [Example 92, 5-(5-(2-amino-[1,2,4]triazolo[1,5-a]pyridin-7-yl)-2,3-difluorophenoxy)-3-fluoro-2-(4-fluorophenyl)pentan-2-ol], the concentration for half-maximal inhibition (IC50) is 1390 nM.

For `Cc1ccc(-c2ccn3nc(N)nc3c2)c(F)c1OCCC(F)C(O)c1ccc(F)cc1` (single isomer, unassigned) [Example 109, 4-(3-(2-amino-[1,2,4]triazolo[1,5-a]pyridin-7-yl)-2-fluoro-6-methylphenoxy)-2-fluoro-1-(4-fluorophenyl)butan-1-ol], the IC50 worked out at 0.1 nM.

For the compound `CC(O)(c1ccc(F)cc1)C(F)CCOc1cccc(-c2ccn3nc(N)nc3c2)c1F` (single isomer, unassigned) [Example 91, 5-(3-(2-amino-[1,2,4]triazolo[1,5-a]pyridin-7-yl)-2-fluorophenoxy)-3-fluoro-2-(4-fluorophenyl)pentan-2-ol], the half-inhibitory concentration (IC50) was 0.3 nM.

Consider `CC(O)(c1ccc(F)cc1)C(F)CCOc1c(F)ccc(-c2ccn3nc(N)nc3c2)c1F` (single isomer, unassigned) [Example 97, 5-(3-(2-amino-[1,2,4]triazolo[1,5-a]pyridin-7-yl)-2,6-difluorophenoxy)-3-fluoro-2-(4-fluorophenyl)pentan-2-ol], for which the IC50 was determined as 29 nM.

Take `CC(CC(F)(F)C(C)(O)c1ccc(F)cc1)Oc1c(F)ccc(-c2ccn3nc(N)nc3c2)c1F` (single isomer, unassigned) [Example 129, 5-(3-(2-amino-[1,2,4]triazolo[1,5-a]pyridin-7-yl)-2,6-difluorophenoxy)-3,3-difluoro-2-(4-fluorophenyl)hexan-2-ol]: the IC50 worked out at 70 nM.

`CC(O)(c1ccc(F)cc1)C(F)CCOc1cccc(-c2ccn3nc(N)nc3c2)c1F` (single isomer, unassigned) [Example 88, 5-(3-(2-amino-[1,2,4]triazolo[1,5-a]pyridin-7-yl)-2-fluorophenoxy)-3-fluoro-2-(4-fluorophenyl)pentan-2-ol]: the IC50 came out at 13 nM.

Turning to `CC(O)(c1ccc(Cl)cc1)C(F)(F)CCOc1c(Cl)ccc(-c2ccn3nc(N)nc3c2)c1F` (single isomer, unassigned) [Example 44, 5-(3-(2-amino-[1,2,4]triazolo[1,5-a]pyridin-7-yl)-6-chloro-2-fluorophenoxy)-2-(4-chlorophenyl)-3,3-difluoropentan-2-ol], the IC50 is 0.6 nM.

Regarding `Cc1ccc(-c2ccn3nc(N)nc3c2)c(F)c1OCCC(F)(F)C(C)(O)c1ccc(F)cc1` (single isomer, unassigned) [Example 63, 5-(3-(2-amino-[1,2,4]triazolo[1,5-a]pyridin-7-yl)-2-fluoro-6-methylphenoxy)-3,3-difluoro-2-(4-fluorophenyl)pentan-2-ol], the IC50 was found to be 8 nM.

Consider `Nc1nc2cc(-c3ccc(F)c(OCCC(F)(F)C(O)c4ccc(F)cc4)c3F)ccn2n1` (single isomer, unassigned) [Example 56, 4-(3-(2-amino-[1,2,4]triazolo[1,5-a]pyridin-7-yl)-2,6-difluorophenoxy)-2,2-difluoro-1-(4-fluorophenyl)butan-1-ol], for which the IC50 came to 4 nM.

Regarding `CC(O)(c1cccc(F)c1)C(F)(F)CCOc1c(F)ccc(-c2ccn3nc(N)nc3c2)c1F` (single isomer, unassigned) [Example 123, 5-(3-(2-amino-[1,2,4]triazolo[1,5-a]pyridin-7-yl)-2,6-difluorophenoxy)-3,3-difluoro-2-(3-fluorophenyl)pentan-2-ol], the IC50 came to 0.9 nM.

Regarding `CC(O)(c1ccc(F)cn1)C(F)(F)CCOc1c(Cl)ccc(-c2ccn3nc(N)nc3c2)c1F` (single isomer, unassigned) [Example 32, 5-(3-(2-amino-[1,2,4]triazolo[1,5-a]pyridin-7-yl)-6-chloro-2-fluorophenoxy)-3,3-difluoro-2-(5-fluoropyridin-2-yl)pentan-2-ol], the IC50 amounted to 30 nM.

For the compound `Nc1nc2cc(-c3ccc(C(F)(F)F)c(OCCC(F)C(O)c4ccc(F)cc4)c3F)ccn2n1` (single isomer, unassigned) [Example 110, 4-(3-(2-amino-[1,2,4]triazolo[1,5-a]pyridin-7-yl)-2-fluoro-6-(trifluoromethyl)phenoxy)-2-fluoro-1-(4-fluorophenyl)butan-1-ol], the IC50 is 360 nM.

On to `CC(O)(c1ccc(F)cc1)C(F)(F)CCOc1ccc(F)c(-c2ccn3nc(N)nc3c2)c1F` (single isomer, unassigned) [Example 9, 5-(3-(2-amino-[1,2,4]triazolo[1,5-a]pyridin-7-yl)-2,4-difluorophenoxy)-3,3-difluoro-2-(4-fluorophenyl)pentan-2-ol], for which the IC50 is 0.1 nM.

As for `Nc1nc2cc(-c3cccc(OCCC(F)C(O)c4ccc(F)cc4)c3F)ccn2n1` (single isomer, unassigned) [Example 85, 4-(3-(2-amino-[1,2,4]triazolo[1,5-a]pyridin-7-yl)-2-fluorophenoxy)-2-fluoro-1-(4-fluorophenyl)butan-1-ol], the half-maximal inhibitory concentration (IC50) worked out at 0.9 nM.

For the origin of these results see patent US20260217711A1, “TRIAZOLOPYRIDINYL ETHER LINKED COMPOUNDS AS KINASE INHIBITORS” (Bristol-Myers Squibb Company, priority 2023, published 2026).
